These results are taken from US12448394B2, “Heterocyclic pyrazole derivatives as type III receptor tyrosine kinase inhibitors” (DEVELOPMENT CENTER FOR BIOTECHNOLOGY, priority 2019, dated 2025).

Structures are written as SMILES. Residue numbers refer to the chain shown, from its start.

In experiment [1] the test system is HCC827 NSCLC cell with EGFR exon 19 deletion mutation. Description: HCC827 cell proliferation assay (counter screen). The class given is cell-based, human. The following applies: Homo sapiens, HCC827 cells, 72 hours treatment, CellTiter96, read-out: anti-proliferation activity HCC827 EGFR Exon19 del, IC50 ranking. As to the method:
(§1) Inhibitions of cell growths by compounds were measured using CellTiter™-96 assay. The cytotoxicities of compounds of the invention were evaluated in cell line panels with different signaling pathway dependencies, including MV4-11 human acute myeloid leukemia cell with FLT3-ITD mutation, Molm-14 human acute myeloid leukemia cell with FLT3-ITD mutation, THP-1 human acute monocytic leukemia cell with NRAS G12D mutation, A375 melanoma cell with BRAF V600E mutation, and HCC827 NSCLC cell with EGFR exon 19 deletion mutation.
HCC827 cells are non-small cell lung carcinoma (NSCLC) cells encoding EGFR exon 19 deletion mutation, which renders the cell growth dependent on EGFR signaling instead of class III RTKs signaling. HCC827 cells (catalog #CRL-2868) were obtained from the ATCC. Briefly, cells were cultured in RPMI1640 medium supplemented with 10% FBS and incubated at 37° C. in 5% CO2 atmosphere. Cells were allowed to expand until reaching saturation, at which point they were sub-cultured or harvested for assay use.
(§2) MV4-11, Molm-14, THP-1, A375, and HCC827 cells were seeded into 96-well plates at 6500, 25000, 5000, 2000 and 8000 cells/well, respectively, and incubated at 37° C., 5% CO2 overnight. Then, these seeded cells were treated with increasing concentrations of the test compounds and incubated for another 72 hours. At the end of the incubation, CellTiter96® AQueous One Solution Reagent (Promega, […]) was added and incubated for the additional 2˜4 hours. Cell viability was determined by measuring absorbance at 490 nm using EMax® microplate reader (Molecular Devices, San Jose, CA, USA).
On the technique in general: A counterscreen serves to expose hits that act by an unwanted route or on another target.

Experiment [2] has as its system MV4-11 human acute myeloid leukemia cell with FLT3-ITD mutation. The experiment is described as follows: MV4-11 cell proliferation assay (CellTiter 96). The class given is cell-based. The note with it: Homo sapiens, MV4-11, 72 h, MV4-11 cells, 72 hours treatment, CellTiter96; read-out: anti-proliferation activity MV4-11 (FLT3-ITD), IC50 ranking. As to the method:
as §1
The compounds disclosed herein were tested in MV4-11 cell proliferation assay to determine their cellular potencies against FLT3 signal pathway dependent cell growths. MV4-11 cells are human acute myeloid leukemia (AML) cells harboring ligand-independent FLT3-ITD activating mutation, which renders the abnormal proliferation of AML cells FLT3 signaling pathway dependent. Inhibition of FLT3 kinase activity will result in reduced growths and/or cell deaths. MV4-11 cells (catalog #CRL-9591) were obtained from the American Type Culture Collection (ATCC, Manassas, VA). Briefly, cells were grown in IMDM medium supplemented with 10% heat inactivated fetal bovine serum and incubated at 37° C. in 5% CO2 atmosphere. Cells were allowed to expand until reaching saturation, at which point they were sub-cultured or harvested for assay use.
as §2

For experiment [3], the system named is Molm-14 human acute myeloid leukemia cell with FLT3-ITD mutation. The experiment is described as follows: Molm-14 cell proliferation assay (CellTiter 96). The format is cell-based. The following applies: Homo sapiens; Molm-14 cells, 72 hours treatment, CellTiter96; read-out: anti-proliferation activity Molm-14 (FLT3-ITD), IC50 ranking. As to the method:
as §1
The compounds disclosed herein were tested in Molm-14 cell proliferation assay to determine their cellular potencies against FLT3 signal pathway dependent cell growths. Molm-14 cells are human acute myeloid leukemia (AML) cells harboring ligand-independent FLT3-ITD activating mutation, which renders the abnormal proliferation of the AML cells FLT3 signaling pathway dependent. Inhibition of FLT3 kinase activity will result in reduced growths and/or cell deaths. […] Briefly, cells were grown in RPMI 1640 medium supplemented with 10% heat inactivated fetal bovine serum and incubated at 37° C. in 5% CO2 atmosphere. Cells were allowed to expand until reaching saturation, at which point they were sub-cultured or harvested for assay use.
as §2

Experiment [4] deals with A375 melanoma cell with BRAF V600E mutation. Description: A375 cell proliferation assay (counter screen). The following applies: Homo sapiens, A-375, A375 cells, 72 hours treatment, CellTiter96, read-out: anti-proliferation activity A375 BRAF V600E, IC50 ranking. The class given is cell-based, human. As to the method: as §1
A375 cells are melanoma cells encoding BRFA V600E mutation, which renders the cell growth dependent on BRAF signaling instead of class III RTKs signaling. A375 cells (catalog #CRL-1619) were obtained from the ATCC. Briefly, cells were cultured in DMEM containing 10% FBS and incubated at 37° C. in 5% CO2 atmosphere. Cells were allowed to expand until reaching saturation, at which point they were sub-cultured or harvested for assay use.
as §2

Experiment [5] concerns THP-1 human acute monocytic leukemia cell with NRAS G12D mutation. Description: THP-1 cell proliferation assay (counter screen). The following applies: Homo sapiens, THP-1 cells, 72 hours treatment, CellTiter96, read-out: anti-proliferation activity THP-1 NRAS N12D, IC50 ranking. The format is cell-based. As to the method: as §1
THP-1 cells are human acute monocytic leukemia cells with NRAS G12D mutation, which renders the cell growth independent of class III RTKs signaling. THP-1 cells (catalog #TIB-202) were obtained from the ATCC. Briefly, cells were grown in RPMI 1640 medium supplemented with 10% heat inactivated fetal bovine serum and 0.05 mM 2-mercaptoethanol and incubated at 37° C. in 5% CO2 atmosphere. Cells were allowed to expand until reaching saturation, at which point they were sub-cultured or harvested for assay use.
as §2

The target in experiment [6] is T1, FLT3 kinase (Homo sapiens, UniProt P36888).
T1 construct: purchased SignalChem
T1 sequence (P36888 27-993): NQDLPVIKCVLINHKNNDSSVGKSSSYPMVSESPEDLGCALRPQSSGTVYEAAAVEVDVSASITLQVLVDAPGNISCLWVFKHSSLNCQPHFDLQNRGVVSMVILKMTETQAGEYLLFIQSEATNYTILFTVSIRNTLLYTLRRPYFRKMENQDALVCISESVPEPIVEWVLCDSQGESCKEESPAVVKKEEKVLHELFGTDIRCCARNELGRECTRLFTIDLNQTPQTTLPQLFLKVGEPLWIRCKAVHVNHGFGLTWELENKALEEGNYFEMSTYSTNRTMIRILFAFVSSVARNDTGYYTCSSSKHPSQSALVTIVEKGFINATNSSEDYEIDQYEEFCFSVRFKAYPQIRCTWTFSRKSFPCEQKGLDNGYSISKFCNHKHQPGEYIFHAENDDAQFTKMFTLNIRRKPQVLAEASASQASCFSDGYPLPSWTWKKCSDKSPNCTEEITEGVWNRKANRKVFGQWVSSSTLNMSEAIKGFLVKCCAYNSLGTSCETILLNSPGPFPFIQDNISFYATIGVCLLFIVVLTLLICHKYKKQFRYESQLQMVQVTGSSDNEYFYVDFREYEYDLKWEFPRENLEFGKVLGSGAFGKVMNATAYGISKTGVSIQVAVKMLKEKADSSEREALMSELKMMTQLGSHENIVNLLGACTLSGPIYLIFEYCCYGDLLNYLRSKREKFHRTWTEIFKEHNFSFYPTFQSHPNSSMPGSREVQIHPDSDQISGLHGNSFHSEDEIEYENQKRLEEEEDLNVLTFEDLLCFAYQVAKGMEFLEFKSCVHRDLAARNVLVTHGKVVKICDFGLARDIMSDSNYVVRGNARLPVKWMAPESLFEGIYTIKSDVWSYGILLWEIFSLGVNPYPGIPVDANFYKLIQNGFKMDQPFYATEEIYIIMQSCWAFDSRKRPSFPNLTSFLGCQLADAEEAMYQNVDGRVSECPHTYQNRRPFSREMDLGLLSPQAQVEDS
The experiment is described as follows: FLT3 kinase assay (AlphaScreen). The class given is biochemical. The following applies: mean; read-out: Biochemical activity (Mean IC50, nM) FLT3. As to the method: (§3) Inhibition of FLT3 kinase activity by a test compound disclosed herein was estimated by AlphaScreen (PerkinElmer, Akron, Ohio, USA). Standard assay conditions were 1.5 ng of recombinant FLT3 kinase (SignalChem, Richmond, BC, Canada) with 6 ng Biotin-conjugated Poly-(Glu 4: Tyr 1) (Cisbio, Bedford, MA, USA) in the assay buffer (10 μM ATP, 10 mM MOPs, pH7.0, 0.21 mM EDTA, 0.5% glycerol, 1 mg/mL BSA, 0.01% 2-mercaptoethanol, 0.001% Brij35, 10 mM MgCl2) in a final volume of 25 μL. Reactions were incubated at 30° C. for 30 min and stopped by adding 5 μL of 50 mM EDTA. Analysis of resulting product using an AlphaScreen kit and counted with Enspire Alpha (PerkinElmer, Waltham, MA, USA). […] The IC50 values of inhibitors were determined after carrying out assays with each compound at serially diluted concentrations in duplication. The results were analyzed using linear regression software (GraphPad Prism 5; GraphPad Software Inc.)
In general terms: In Alpha technology, singlet oxygen from a donor bead excites a nearby acceptor bead.

Experiment [7] has as its target T2, FLT3-D835Y mutant kinase (Homo sapiens, UniProt P36888, D835Y).
T2 construct: purchased SignalChem
T2 sequence (P36888 27-993 D835Y): T1 sequence (P36888 27-993) with D809Y
The experiment is described as follows: FLT3-D835Y mutant kinase assay (AlphaScreen). The class given is biochemical. The following applies: mean; read-out: Biochemical activity (Mean IC50, nM) FLT3-D835Y. As for the experimental part: as §3, with “FLT3-D835Y mutant” for “FLT3”, “(PerkinElmer).” for “(PerkinElmer, Akron, Ohio, USA).”, “1” for “1.5”, “(SignalChem)” for “(SignalChem, Richmond, BC, Canada)”, “(Cisbio)” for “(Cisbio, Bedford, MA, USA)”, “(PerkinElmer).” for “(PerkinElmer, Waltham, MA, USA).”

Consider `Cn1ncc2ccc(-c3n[nH]c4c3Cc3sc(-c5ccc(CN6CCOCC6)cn5)cc3-4)cc21` [Compound 55, 4-((6-(3-(1-methyl-1H-indazol-6-yl)-1,4-dihydro-thieno[2′,3′:4,5]cyclopenta [1,2-c]pyrazol-6-yl)pyridin-3-yl)methyl) morpholine], for which the IC50 in experiment [1] is greater than 10000 nM; in experiment [2], less than 30 nM; in experiment [3], less than 30 nM; in experiment [4], greater than 10000 nM; in experiment [5] it was greater than 10000 nM.

In the case of `COc1ccc(-c2n[nH]c3c2Cc2sc(-c4ccc(N)nc4)cc2-3)cc1` [Example H, 5-(3-(4-methoxyphenyl)-1,4-dihydrothieno[2′,3′:4,5]cyclopenta[1,2-c]pyrazol-6-yl)pyridin-2-amine, reference compound], the IC50 in experiment [6] is 8 nM; in experiment [7] it was 15 nM.
